Measured values: PubChem BioAssay (NCI)
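Compound exposure: 48 hours, 5 concentrations, 96-well plates. TGI is the concentration that stops growth completely.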

What was measured:
Experiment in all cases: NCI tumour cell line growth inhibition, 48 h
K-562 leukemia = tested on: K-562 leukemia
SNB-19 CNS = tested on: SNB-19 CNS
BT-549 breast = tested on: BT-549 breast
OVCAR-3 ovarian = tested on: OVCAR-3 ovarian
PC-3 prostate = tested on: PC-3 prostate
NCI-H226 lung = tested on: NCI-H226 lung
OVCAR-8 ovarian = tested on: OVCAR-8 ovarian
RXF 393 renal = tested on: RXF 393 renal
HCC-2998 colon = tested on: HCC-2998 colon
SK-MEL-28 melanoma = tested on: SK-MEL-28 melanoma

| SMILES | TGI (K-562 leukemia) [µM] | TGI (SNB-19 CNS) [µM] | TGI (BT-549 breast) [µM] | TGI (OVCAR-3 ovarian) [µM] | TGI (PC-3 prostate) [µM] | TGI (NCI-H226 lung) [µM] | TGI (OVCAR-8 ovarian) [µM] | TGI (RXF 393 renal) [µM] | TGI (HCC-2998 colon) [µM] | TGI (SK-MEL-28 melanoma) [µM] |
| --- | --- | --- | --- | --- | --- | --- | --- | --- | --- | --- |
| CN(C)Cc1cc(O)c(O)c(CN(C)C)c1 | > 100 | > 100 | > 100 | > 100 | > 100 | > 100 | > 100 | > 100 | 81.8 | > 100 |
| Cc1[nH]c2ccccc2c1C=Nc1ccc(N=Cc2c(C)[nH]c3ccccc23)cc1 | 47 | > 100 | > 100 | > 100 | > 100 | > 100 | > 100 | > 100 | > 100 | > 100 |
| CC[C@H](C)[C@H]1NC(=O)[C@@H](NC(=O)[C@@H](CC(C)C)N(C)CC2CCCN2C(=O)C(C)=O)[C@@H](C)OC(=O)[C@H](Cc2ccc(OC)cc2)N(C)C(=O)C2CCCN2C(=O)[C@H](CC(C)C)NC(=O)[C@@H](C)C(=O)[C@H](C(C)C)OC(=O)C[C@@H]1O (stereo not given in full) | 0.0158 | 0.0115 | 0.0135 | 0.0151 | 0.00983 | 0.0809 | 0.0474 | 0.00299 | 0.00958 | 0.0303 |
| CC(C)c1ccc(/C=C2\CSCC3=C2NC(=S)NC3c2ccc(C(C)C)cc2)cc1 (stereo not given) | > 100 | > 100 | > 100 | > 100 | > 100 | > 100 | > 100 | > 100 | > 100 | > 100 |
| Cc1sc(/N=C/c2c[nH]c3ccccc23)c(C#N)c1C | > 100 | > 100 | > 100 | 66.1 | > 100 | > 100 | > 100 | 74 | 70.5 | > 100 |
| CSc1c(C#N)c(=O)[nH]c2n[nH]c(C)c12 | > 100 | > 100 | > 100 | > 100 | > 100 | > 100 | > 100 | > 100 | > 100 | > 100 |
| CN(NC(=O)CCCl)C1=NCCCCN1 | > 100 | > 100 | > 100 | > 100 | > 100 | > 100 | > 100 | > 100 | > 100 | > 100 |
| CCCNC(C#N)c1ccc(C(C#N)NCCC)cc1 (stereo not given) | > 100 | > 100 | > 100 | > 100 | > 100 | > 100 | > 100 | > 100 | > 100 | > 100 |
| O=C(OCc1ccccc1)C1(N2CN(C3(C(=O)OCc4ccccc4)CCCC3)CN(C3(C(=O)OCc4ccccc4)CCCC3)C2)CCCC1 | > 10 | > 10 | > 10 | > 10 | > 10 | > 10 | > 10 | > 10 | > 10 | > 10 |
| COc1ccc2c(c1)n([O-])c(C#N)c(N1CCN(c3ccc([N+](=O)[O-])cc3)CC1)[n+]2=O | > 100 | > 100 | > 76.7 | > 100 | > 100 | > 100 | > 100 | 41.8 | > 100 | > 69.7 |
| CC(C)(C)C1(COC(=O)c2ccc(N)cc2)COC1 | > 100 | > 100 | > 100 | > 100 | > 100 | > 100 | > 100 | > 100 | > 100 | > 100 |
| NC(=O)c1ccc2c(c1)S(=O)(=O)c1ccccc1C2=O | > 100 | > 100 | > 100 | > 100 | > 100 | > 100 | > 100 | > 100 | > 100 | > 100 |
| COc1cc(CC2c3cc(OC)c(OC)cc3CCN2C)c(Oc2cc3c(cc2OC)-c2c(O)c(OC)cc4c2C(C3)N(C)CC4)cc1OC (stereo not given) | > 100 | 57.4 | 32.4 | > 100 | 94.6 | 66.2 | 44.5 | 9.35 | 31 | 63.2 |
| COC(OC)C1OC(CO)C(n2ccc(N)nc2=O)C1O (stereo not given) | > 100 | > 100 | > 100 | > 100 | > 100 | > 100 | > 100 | > 100 | > 100 | > 100 |
| C=C(CC[C@@H](C(=O)O)[C@H]1[C@H](O)C[C@@]2(C)C3=CC[C@@H](C(=C)C)[C@](C)(CCC(=O)O)C3=CC[C@]12C)C(C)C | > 100 | 32.9 | 33 | 33.2 | 34.3 | 36.3 | 39.9 | 34.5 | 32.4 | 40 |
| C=CCSC1=N/C(=C\c2ccccc2)C(=O)N1CC=C | > 100 | > 100 | > 100 | > 93.9 | > 75.8 | > 100 | > 100 | 60.6 | > 100 | > 100 |
